Paper PMC8596843, “Platinum Cyclooctadiene Complexes with Activity against Gram‐positive Bacteria” (Chemmedchem, 2021)

Tests used:
[1] = test system: Staphylococcus aureus ATCC 43300 (MRSA); assay: microbe, parasite or virus in culture; format: cell-based
Description: (§1) All compounds submitted to CO‐ADD are initially screened against five bacterial strains (Staphylococcus aureus (MRSA), E. coli, Klebsiella pneumoniae, Pseudomonas aeruginosa, Acinetobacter baumannii) and two fungal strains (Candida albicans, Cryptococcus neoformans) at a single concentration (32 μg/mL or 20 μM) performed as a high‐throughput primary screening.[[11], [17a]] Any compounds that show significant growth inhibition against any of the tested strains at this step are then evaluated in a dose‐response assay against these same strains. […]
(§2) Smiles: C1C=CCCC(=CC1)C1=CCCC=CCC1.C[Pt]C.C[Pt]C […]
(§3) ATCC strains were sourced from the American Type Culture Collection and NRS strains from NARSA (Network on Antimicrobial Resistance in Staphylococcus aureus) via BEI Resources (www.beiresources.org), with clinical MSSA and MRSA isolates from Prof Graeme Nimmo, Queensland […]
(§4) Health Central Pathology. […]
(§5) Antibacterial minimum inhibitory concentration (MIC) assay
(§6) Compound Assay Plate Preparation: Compounds were dissolved in DMSO at 10mM (CO-ADD screening) or 4 mM (follow up screening) and were plated in a 2-fold dose response from 20 to 0.156 µM or 200 to 0.006 µM respectively, with a maximum of 0.5% or 1% DMSO, final in the assay […]
(§7) plated in a 2-fold dose response from 200 to 0.006 µM, with a maximum of 1 % DMSO, final in the assay concentration. (in-house screening)
(§8) For all the bacterial assays, each strain was cultured in Cation-adjusted Mueller Hinton broth (CAMHB; Bacto Laboratories 212322) at 37 °C overnight. A sample of each culture was then diluted 40-fold in fresh CAMHB and incubated at 37 °C for 1.5–3 h. The resultant mid-log phase cultures were diluted with CAMHB (CFU mL−1 measured by OD600), then added to each well of the compound-containing plates (384-well non-binding surface (NBS) plates; Corning CLS3640), giving a cell density of 5 × 10^5 CFU mL−1 and a total volume of 50 μL. Plates were covered and incubated at 37 °C for 18 h without shaking. Inhibition of bacterial growth was determined measuring absorbance at 600 nm (OD600), using media only as negative control and bacteria without inhibitors as positive control. MIC values were determined as the lowest concentration at which the growth was inhibited at ≥80%. Colistin sulfate (Sigma C4461) and vancomycin HCl (Sigma 861987) were used as internal controls on each plate for Gram-negative and Gram-positive bacteria, respectively. […]

[2] = test system: Acinetobacter baumannii ATCC 19606; assay: Antibacterial MIC assay; format: cell-based; details: CO‐ADD screening
Description: as §1, §2, §3, §4, §5, §6, §7, §8

[3] = test system: Escherichia coli ATCC 25922; assay: Antibacterial MIC assay; format: cell-based; details: CO‐ADD screening
Description: as §1, §2, §3, §4, §5, §6, §7, §8

[4] = test system: Pseudomonas aeruginosa ATCC 27853; assay: Antibacterial MIC assay; format: cell-based; details: CO‐ADD screening
Description: as §1, §2, §3, §4, §5, §6, §7, §8

[5] = test system: Klebsiella pneumoniae ATCC 700603 (ESBL SHV‐18)
Description: as §1, §2, §3, §4, §5, §6, §7, §8

[6] = test system: Candida albicans ATCC 90028; assay: Antifungal MIC (CO-ADD screening); format: cell-based
Description: (§9) InChIKey: PHIWIZAHOBWKFJ-HPCBIOCFSA-N
(§10) Health Central Pathology. Candida albicans (ATCC 90028, NCCLS 11), Cryptococcus neoformans
as §5
(§11) concentration. (in-house screening)
(§12) Bacto Laboratories 212322) at 37 °C overnight.

[7] = test system: Cryptococcus neoformans H99 ATCC 208821; assay: Antifungal MIC (CO-ADD screening); format: cell-based
Description: as §9, §10, §5, §11, §12

[8] = test system: HEK-293 ATCC CRL-1573 human embryonic kidney cells; format: cell-based
Description: As part of the CO‐ADD screening, all compounds that show any activity against a microbial strain are evaluated for their cytotoxicity against human embryonic kidney cells (HEK‐293) and for haemolysis against human red blood cells. None of the compounds tested for cytotoxicity (Pt1‐9 and Pd1) caused any significant cell death up to concentrations of 100 μM. […] We have also observed higher IC50 values for the methylated complexes Pt3 and Pt4 against HeLa cells in previous work.[16] […]
(§13) inhibitors as positive control.
(§14) Tamoxifen (Sigma T5648) was used
(§15) as internal control on each plate.
in a Neubauer haemocytometer. […]

human red blood cells = assay: Haemolysis assay; format: cell-based
Description: As part of the CO‐ADD screening, all compounds that show any activity against a microbial strain are evaluated for their cytotoxicity against human embryonic kidney cells (HEK‐293) and for haemolysis against human red blood cells. None of the compounds tested for cytotoxicity (Pt1‐9 and Pd1) caused any significant cell death up to concentrations of 100 μM. […] We have also observed higher IC50 values for the methylated complexes Pt3 and Pt4 against HeLa cells in previous work.[16]
(§16) The resultant mid-log phase cultures were diluted
(§17) Gram-negative and Gram-positive bacteria, respectively.
(§18) final concentration range of 0.8 – 100 µM.
as §13, §14, §15
in a Neubauer haemocytometer.
incubated for 1 h at 37 °C, without shaking.
HC10 and HC50 (concentration at which 10%
for top, bottom and slope using Prism 8. […]

[9] = test system: Staphylococcus aureus ATCC 25923, MSSA; assay: Antibacterial MIC assay, Gram-positive panel; format: cell-based; details: Table S1 panel; n=4
Source text: (§19) Bis(dimethyl-η4)-((1Z,1'E,5Z,5'E)-(1,1'-bi(cyclooctadiene))diplatinum(II) (Pt14) Smiles: C1C=CCCC(=CC1)C1=CCCC=CCC1.C[Pt]C.C[Pt]C
as §9
(§20) Link to selected data that was repeated to approve the identity of the compounds: https://dx.doi.org/10.14272/PHIWIZAHOBWKFJ-HPCBIOCFSA-N.1
as §3, §4, §5, §6, §7, §8

[10] = test system: Staphylococcus aureus VRS 1, VRSA (VanA); assay: Antibacterial MIC assay, Gram-positive panel; format: cell-based; details: Table S1 panel; n=4
Source text: as §19, §9, §20, §3, §4, §5, §6, §7, §8

[11] = test system: Bacillus subtilis ATCC 6051, type strain; assay: Antibacterial MIC assay, Gram-positive panel; format: cell-based; details: Table S1 panel; n=2
Description: as §2, §3, §4, §5, §6, §7, §8

[12] = test system: Enterococcus faecalis ATCC 29212, control strain; assay: Antibacterial MIC assay, Gram-positive panel; format: cell-based; details: Table S1 panel; n=4
Description: as §2, §3, §4, §5, §6, §7, §8

[13] = test system: Enterococcus faecium ATCC 35667, type strain; assay: Antibacterial MIC assay, Gram-positive panel; format: cell-based; details: Table S1 panel; n=4
Description: as §2, §3, §4, §5, §6, §7, §8

[14] = test system: Enterococcus faecium ATCC 51559, MDR, VRE (VanA); assay: Antibacterial MIC assay, Gram-positive panel; format: cell-based; details: Table S1 panel; n=2
Description: as §2, §3, §4, §5, §6, §7, §8

[15] = test system: Enterococcus faecium Clinical Isolate, VRE (VanA); assay: Antibacterial MIC assay, Gram-positive panel; format: cell-based; details: Table S1 panel; n=4
Description: as §2, §3, §4, §5, §6, §7, §8

[16] = test system: Staphylococcus aureus NRS 17, GISA; assay: Antibacterial MIC assay, Gram-positive panel; format: cell-based; details: Table S1 panel; n=2
Description: as §2, §3, §4, §5, §6, §7, §8

[17] = test system: Staphylococcus epidermidis ATCC 14990, type strain; assay: Antibacterial MIC assay, Gram-positive panel; format: cell-based; details: Table S1 panel; n=4
Description: as §2, §3, §4, §5, §6, §7, §8

[18] = test system: Staphylococcus epidermidis NRS 60, VISE; assay: Antibacterial MIC assay, Gram-positive panel; format: cell-based; details: Table S1 panel; n=4
Description: as §2, §3, §4, §5, §6, §7, §8

[19] = test system: E. coli lpxC (non‐efficient lipid A production mutant); assay: MIC against E. coli membrane mutants; format: cell-based, Escherichia coli; details: Table S2
Description: as §5, §11, §12, §16, §17, §18
(§21) inhibitors as positive control. […]

[20] = test system: B. subtilis ATCC 6051 type strain; assay: MIC in the presence of human serum (serum reversal); format: cell-based, Bacillus subtilis; details: 10% serum
Source text: (§22) To obtain some initial insight into the apparent disparity between in vitro and in vivo results, we repeated the MIC experiments against four selected Gram‐positive strains in the presence of 10 % or 50 % human serum (Table S3). Pt1 and Pt2 maintained some antibacterial activity against B. subtilis in the presence of 10 % serum, but a complete loss of activity was observed against MRSA and GISA (50 % serum), and VRE (10 % serum). […] Systemic administration is therefore unlikely to be a suitable administration route for this class of compounds unless an alternative formulation that can prevent serum binding (e. g. by lipid or nanoparticle encapsulation) can be found. […] Further in vivo studies should therefore focus on more suitable disease models. […]
as §5, §11, §12, §16, §17, §18, §21

[21] = test system: S. aureus ATCC 43300 MRSA; assay: as above; format: cell-based, Staphylococcus aureus; details: 50% serum
Source text: as §22, §5, §11, §12, §16, §17, §18, §21

S. aureus NRS 17 GISA = assay: as above; format: cell-based, Staphylococcus aureus; details: 50% serum
Source text: as §22, §5, §11, §12, §16, §17, §18, §21

[22] = test system: E. faecium ATCC 51559 MDR, VRE; assay: as above; format: cell-based, Enterococcus faecium; details: 10% serum
Source text: as §22, §5, §11, §12, §16, §17, §18, §21

With `CC(C)C([O][Pt][Cl])/C1=C/CC/C=C\CC1` (centres unmarked) [Pt8] the “MIC Sa” value ([1]; CO‐ADD screening) was >20 µM, the MIC ([1]; Table S1 panel, n=2) was 3.12 µM and the “MIC Ab” value [2] was >20 µM. The “MIC Ec” value [3] was >20 µM, the “MIC Pa” value [4] was >20 µM and the “MIC Kp” value [5] was >20 µM. The “MIC Ca” value [6] was 10 µM, the “MIC Cn” value [7] was 1.25 µM and the CC50 [8] was > 100 µM. The “Haemolysis HC10” value (human red blood cells; concentration inducing 10 % haemolysis) was >100 µM, the “Haemolysis HC50” value (human red blood cells; concentration inducing 50 % haemolysis) was >100 µM and the MIC [9] was 25 µM. For the same molecule, the MIC [10] was 12.5 µM, the MIC [11] was 50 µM and the MIC [12] was 100 µM. The MIC [13] was 100 µM, the MIC [14] was 50 µM and the MIC [15] was 100 µM. It also gave an MIC [16] of 50 µM, an MIC [17] of 6.25 µM and an MIC [18] of 25 µM. The MIC E. coli lpxC [19] was > 200 µM, the MIC in the presence of human serum [20] was 200 µM and the MIC in the presence of human serum [21] was > 200 µM. The MIC in the presence of human serum (S. aureus NRS 17 GISA) was > 200 µM and the MIC in the presence of human serum [22] was > 200 µM.
